Laboratory results from patent publication US10111437B2, “Substituted guanidines as fungicides” (Nippon Soda Co., Ltd., priority 2015, dated 2018).
Structures can show the parent of a compound that is named as a salt.

How the values were obtained:
[1] = test system: cucumber gray mold fungus (Botrytis cinerea); assay: Cucumber gray mold control test (foliar spray on cucumber seedlings); details: in Cucumis sativus, 96 h, read-out: control value
[2] = test system: wheat leaf rust fungus (Puccinia recondita); assay: Wheat leaf rust control test (foliar spray on wheat seedlings); format: in vivo; details: 240 h, 125 ppm active ingredient, sprayed on wheat seedlings (variety Norin 61) before inoculation, 10 days, vs untreated
[3] = test system: Apple scab fungus (Venturia inaequalis); assay: Apple scab control test (foliar spray on apple seedlings); format: in vivo; details: 125 ppm active ingredient, sprayed on apple seedlings (variety Orin) before inoculation, vs untreated
Description: The dilution was sprayed to apple seedlings (variety “Orin”, 3 to 4 leaf stage) grown in clay pots. […] The control value was calculated by the following equation. [formula]

[4] = test system: Tomato late blight fungus (Phytophthora infestans); assay: whole plant or invertebrate; format: in vivo; details: foliar, 96 h, read-out: control value

`N=C(NCCCc1cc2cc(C(=N)N)ccc2o1)NCCCc1cc2cc(C(=N)N)ccc2o1` (as salt: hydrochloride) [compound 80] gave a melting point of 174 to 182 °C.
Compound `N=C(NCCCOc1ccc(C(=N)N)c(F)c1)NCCCOc1ccc(C(=N)N)c(F)c1` (as salt: hydrochloride) [compound 82] has a melting point of 181 to 185 °C.
Compound `N=C(N)c1ccc(OCCCn2ccn(CCCOc3ccc(C(=N)N)cc3Cl)c2=N)c(Cl)c1` (as salt: hydrochloride) [compound 99] has a melting point of 184 to 190 °C.
Compound `Cc1cn(CCCOc2ccc(C(=N)N)cc2)c(=N)n1CCCOc1ccc(C(=N)N)cc1` (as salt: hydrochloride) [compound 114] has a melting point of 182 to 186 °C.
`N=C(N)c1ccc(SCCCn2ccn(CCCSc3ccc(C(=N)N)cc3)c2=N)cc1` (as salt: hydrochloride) [compound 181] gave a melting point of 169 to 172 °C.
Compound `N=C(NCC#Cc1ccc(C(=N)N)cc1)NCC#Cc1ccc(C(=N)N)cc1` (as salt: hydrochloride) [compound 155] has a melting point of 220 °C.
Compound `N=C(NCC/C=C/c1ccc(C(=N)N)cc1)NCC/C=C/c1ccc(C(=N)N)cc1` (as salt: hydrochloride) [compound 151] has a melting point of 179 to 181 °C.
With `Cc1c(C)n(CCCOc2ccc(C(=N)N)cc2)c(=N)n1CCCOc1ccc(C(=N)N)cc1` (as salt: hydrochloride) [compound 109] the melting point was 188 to 199 °C.
`Cc1cc(C(=N)N)ccc1OCCCCNC(=N)NCCCCOc1ccc(C(=N)N)cc1C` (as salt: hydrochloride) [compound 84] gave a melting point of 171 to 180 °C.
Work on `N=C(NCCCOCc1ccc(C(=N)N)cc1)NCCCOc1ccc(C(=N)N)cc1` (as salt: trifluoroacetate) [compound 143] yielded a melting point of 192 to 197 °C.
`N=C(N)c1ccc(OCCCn2ccn(CCCOc3ccc(C(=N)N)c(F)c3)c2=N)cc1F` (as salt: hydrochloride) [compound 103] gave a melting point of 183 to 187 °C.
For `N=C(N)c1ccc(OCCCn2ccn(CCCc3cc4cc(C(=N)N)ccc4o3)c2=N)cc1` (as salt: hydrochloride) [compound 126], the melting point was 227 to 236 °C.
In the case of `N=C(N)NCCCCCCCCn1ccn(CCCOc2ccc(C3=NCCCN3)cc2)c1=N` [compound 184], the pest or weed control at 125 ppm [1] is reported as at least 75%, the pest or weed control at 125 ppm [2] is reported as at least 75% and the pest or weed control at 125 ppm [3] is reported as at least 75%. For the same compound, the pest or weed control at 125 ppm [4] was at least 75%.
With `N=C(NCCCC#Cc1ccc(C(=N)N)cc1)NCCCC#Cc1ccc(C(=N)N)cc1` [compound 22, 4-[5-[[N-[5-(4-carbamimidoylphenyl)pent-4-ynyl]carbamimidoyl]amino]pent-1-ynyl]benzamidine] the pest or weed control at 125 ppm [1] was at least 75%, the pest or weed control at 125 ppm [2] was at least 75% and the pest or weed control at 125 ppm [3] was at least 75%. For the same compound, the pest or weed control at 125 ppm [4] was at least 75%.
Work on `N=C(N)NCCCCCCCn1ccn(CCCCOc2ccc(C(=N)N)cc2)c1=N` [compound 52, 4-[4-[3-(7-guanidinoheptyl)-2-imino-imidazol-1-yl]butoxy]benzamidine] yielded a pest or weed control at 125 ppm [1] of at least 75%, a pest or weed control at 125 ppm [2] of at least 75% and a pest or weed control at 125 ppm [3] of at least 75%. The pest or weed control at 125 ppm [4] was at least 75%.
`Cc1c(C)n(CCCOc2ccc(C(=N)N)cc2)c(=N)n1CCCOc1ccc(C(=N)N)cc1` [compound 109] gave a pest or weed control at 125 ppm [1] of at least 75%, a pest or weed control at 125 ppm [2] of at least 75% and a pest or weed control at 125 ppm [3] of at least 75%. For the same compound, the pest or weed control at 125 ppm [4] was at least 75%.
With `N=C(N)NCCCCCCCCNC(=N)NC/C=C/c1ccc(C(=N)N)cc1` [compound 167] the pest or weed control at 125 ppm [1] was at least 75%, the pest or weed control at 125 ppm [2] was at least 75% and the pest or weed control at 125 ppm [3] was at least 75%. It also gave a pest or weed control at 125 ppm [4] of at least 75%.
In the case of `CN(CCCCCCCCNC(=N)N)C(=N)NCCCOc1ccc(C(=N)N)cc1` [compound 140], the pest or weed control at 125 ppm [1] is reported as at least 75%, the pest or weed control at 125 ppm [2] is reported as at least 75% and the pest or weed control at 125 ppm [3] is reported as at least 75%. For the same compound, the pest or weed control at 125 ppm [4] was at least 75%.
With `N=C(N)NCCCCCCCCNC(=N)NCCc1ccc(C2=NCCCN2)cc1` [compound 266] the pest or weed control at 125 ppm [1] was at least 75%, the pest or weed control at 125 ppm [2] was at least 75% and the pest or weed control at 125 ppm [3] was at least 75%. For the same compound, the pest or weed control at 125 ppm [4] was at least 75%.
